From patent US20020002294A1, “Estrogenic compounds as antiangiogenic agents” (priority 1997, published 2002)

Columns and labels:
[1] = target: T1, rat uterine cytosolic estrogen receptor (Rattus norvegicus, UniProt P06211); assay: Relative Binding Affinity to estrogen receptor; conditions: at 0°; 3H-Estradiol=100
T1 construct: from tissue; host or cells: rat uterine cytosol (per the result head)
T1 sequence (P06211 1-600): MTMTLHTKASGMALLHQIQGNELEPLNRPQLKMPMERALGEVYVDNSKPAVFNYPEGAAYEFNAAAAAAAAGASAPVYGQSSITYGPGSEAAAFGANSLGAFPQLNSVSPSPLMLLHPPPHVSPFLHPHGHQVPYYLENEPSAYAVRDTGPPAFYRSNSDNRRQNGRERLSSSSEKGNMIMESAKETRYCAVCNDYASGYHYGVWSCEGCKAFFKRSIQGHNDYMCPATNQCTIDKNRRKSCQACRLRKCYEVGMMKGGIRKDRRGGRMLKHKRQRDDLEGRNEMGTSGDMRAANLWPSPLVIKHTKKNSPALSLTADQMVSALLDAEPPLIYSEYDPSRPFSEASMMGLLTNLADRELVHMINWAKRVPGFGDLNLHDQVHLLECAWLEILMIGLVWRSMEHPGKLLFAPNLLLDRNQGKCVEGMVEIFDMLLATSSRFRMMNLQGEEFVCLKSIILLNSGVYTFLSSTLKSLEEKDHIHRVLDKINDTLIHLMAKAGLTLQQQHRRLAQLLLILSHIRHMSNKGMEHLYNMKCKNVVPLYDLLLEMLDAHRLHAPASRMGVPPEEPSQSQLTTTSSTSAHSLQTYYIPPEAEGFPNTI
Excerpt: The tubulin activities, breast cancer cell line activities, and the cell panels most sensitive to selected analogs are shown in Tables 3 and 4.

[2] = test system: new blood vessel cells (angiogenesis); assay: chick embryo chorioallantoic membrane (CAM) assay; format: in vivo; conditions: 100 mg disk, after 48 hours
Method: A suitable assay is the chick embryo chorioallantoic membrane (CAM) assay described by Crum et al. Science 230:1375 (1985). See also, U.S. Pat. No. 5,001,116, hereby incorporated by reference, which describes the CAM assay. Briefly, fertilized chick embryos are removed from their shell on day 3 or 4, and a methylcellulose disc containing the drug is implanted on the chorioallantoic membrane. The embryos are examined 48 hours later and, if a clear avascular zone appears around the methylcellulose disc, the diameter of that zone is measured.

[3] = test system: MDA-MB-435 estrogen receptor-negative human breast carcinoma cells; assay: In Vivo Tumor Growth Inhibition; design: species or system SCID mice; conditions: 29 days at 75 mg/kg p.o.
Method: To determine the antitumor activity of 2-ME and derivatives, SCID mice were s.c. inoculated with 10^6 MDA-MB-435 estrogen receptor-negative human breast carcinoma cells. Treatment was initiated on day 12 when tumor volumes reached 75-100 mm3 in volume. Drugs were suspended in 0.5 g/100 ml of carboxymethylcellulose with sterile glass beads, vortexed for 5 minutes, and administered p.o. in a volume of 0.1 ml. Control mice received 0.1 ml of carboxymethylcellulose p.o. Serial caliper measurements of perpendicular diameters were used to calculate tumor volume using the following: (shortest diameter)^2×(longest diameter)×0.52. T/C was calculated as the volume of treated tumors over the volume of control tumors. A smaller number indicates a greater inhibition of tumor growth.

For `COc1cc2c(cc1O)CCC1C2CCC2(C)C(O)CCC12` (stereo not drawn) [NSC 659853, 2-Methoxyestradiol], which “RBA, Relative Binding Affinity to rat uterine cytosolic estrogen receptor” value [1] is on record?
The value was 0.245.

What about the “inhibition of cell mitosis and growth of new blood vessels in CAM assay” value [2] of the same compound?
Its value is “found to inhibit cell mitosis and the growth of new blood vessels”.

What about the “T/C (volume of treated tumors over volume of control tumors)” value [3] of the same compound?
The value was 0.40.
